The record followed here is ChEMBL document CHEMBL4373746, “Structural attributes influencing unbound tissue distribution” (Eur J Med Chem, 2020).

Data set [1] in a line: Fraction unbound in Wistar Han rat plasma at 2 uM incubated for 6 hrs by equilibrium dialysis method. Background: In equilibrium dialysis only unbound substance equilibrates across the membrane.
Data set [2] in a line: Fraction unbound in Wistar Han rat white adipose tissue at 2 uM incubated for 6 hrs by equilibrium dialysis method.
A short description of data set [3]: Fraction unbound in Wistar Han rat brain at 2 uM incubated for 6 hrs by equilibrium dialysis method.
A short description of data set [4]: Fraction unbound in Wistar Han rat heart at 2 uM incubated for 6 hrs by equilibrium dialysis method.
Data set [5] is described as follows: Fraction unbound in Wistar Han rat liver at 2 uM incubated for 6 hrs by equilibrium dialysis method.
A short description of data set [6]: Fraction unbound in Wistar Han rat skeletal muscle at 2 uM incubated for 6 hrs by equilibrium dialysis method.
Data set [7] in a line: Total plasma concentration in Wistar Han rat at 1 to 2 mg/kg, iv infused for 10 to 20 hrs by LC-MS/MS analysis. To be noted: in vivo.
A short description of data set [8]: Drug concentration in total white adipose tissue in Wistar Han rat at 1 to 2 mg/kg, iv infused for 10 to 20 hrs by LC-MS/MS analysis. To be noted: in vivo.
Data set [9] in a line: Drug concentration in total brain in Wistar Han rat at 1 to 2 mg/kg, iv infused for 10 to 20 hrs by LC-MS/MS analysis. To be noted: in vivo.
A short description of data set [10]: Drug concentration in total heart in Wistar Han rat at 1 to 2 mg/kg, iv infused for 10 to 20 hrs by LC-MS/MS analysis. To be noted: in vivo.
A short description of data set [11]: Drug concentration in total liver in Wistar Han rat at 1 to 2 mg/kg, iv infused for 10 to 20 hrs by LC-MS/MS analysis. To be noted: in vivo.
Data set [12] is described as follows: Drug concentration in total skeletal muscle in Wistar Han rat at 1 to 2 mg/kg, iv infused for 10 to 20 hrs by LC-MS/MS analysis. To be noted: in vivo.
Data set [13] is described as follows: Unbound tissue partition coefficient, ratio of drug level in heart to plasma in Wistar Han rat at 1 to 2 mg/kg, iv infused for 10 to 20 hrs by LC-MS/MS analysis.
The nature of data set [14]: Unbound tissue partition coefficient, ratio of drug level in brain to plasma in Wistar Han rat at 1 to 2 mg/kg, iv infused for 10 to 20 hrs by LC-MS/MS analysis.
The nature of data set [15]: Unbound tissue partition coefficient, ratio of drug level in adipose to plasma in Wistar Han rat at 1 to 2 mg/kg, iv infused for 10 to 20 hrs by LC-MS/MS analysis.
A short description of data set [16]: Unbound tissue partition coefficient, ratio of drug level in liver to plasma in Wistar Han rat at 1 to 2 mg/kg, iv infused for 10 to 20 hrs by LC-MS/MS analysis.
Data set [17] in a line: Unbound tissue partition coefficient, ratio of drug level in skeletal muscle to plasma in Wistar Han rat at 1 to 2 mg/kg, iv infused for 10 to 20 hrs by LC-MS/MS analysis.
Data set [18] can be described thus: Apparent permeability of the compound across dog RRCK cells by MDCK-LE assay.
Data set [19] in a line: Unbound tissue partition coefficient, ratio of drug level in brain to plasma in mouse administered as single dose. The class given is ADME. The note with it: read-out: K(p,uu,brain).

In general, Papp refers to the rate of passage across a membrane or cell layer, normalised by area and donor concentration. With `CS(=O)(=O)c1cccc(C(=O)O)c1`, the fraction unbound at 6 h, 2 µM in [1] came out at 0.373; in data set [2] it was 0.516; in data set [3], 1; in data set [4], 0.422; in [5], 0.628; in data set [6], 0.865. Moreover, the Cp in data set [7] came to 130 ng/mL. For the same compound, the Ct in [8] was determined as 0.77 ng/mL; in [9], 1 ng/mL; in [10], 40 ng/mL; in data set [11], 190 ng/mL; in data set [12], 14 ng/mL. In addition, the Kp uu in data set [13] (heart/plasma) is 0.39; in [14] (brain/plasma), 0.02; in data set [15] (adipose/plasma) it was 0.024; in data set [16] (liver/plasma), 2.4; in data set [17] (skeletal muscle/plasma), 0.27. Also, the Papp in data set [18] turned out to be 12 ×10⁻⁶ cm/s.
As to `O=C(O)c1nc2cc(Cl)c(Cl)cc2nc1O` [6,7-DICHLORO-3-HYDROXY-2-QUINOXALINECARBOXYLIC ACID], the fraction unbound at 6 h, 2 µM in [1] was determined as 0.0414; in data set [2], 0.476; in [3], 1; in [4] it was 0.284; in data set [5], 0.24; in data set [6], 0.435. Besides, the Cp in data set [7] is 56 ng/mL. Besides, the Ct in data set [8] amounted to 0.77 ng/mL; in data set [9] it was 0.38 ng/mL; in data set [10] it was 12 ng/mL; in data set [11], 17 ng/mL; in [12], 5.3 ng/mL. Further, the Kp uu in data set [13] (heart/plasma) amounted to 1.8; in data set [14] (brain/plasma), 0.0018; in data set [15] (adipose/plasma) it was 0.024; in data set [16] (liver/plasma), 2; in data set [17] (skeletal muscle/plasma), 1.1. In [18], the apparent permeability coefficient (Papp) was found to be 1.3 ×10⁻⁶ cm/s.
Take `CN1CC[C@H](c2c(O)cc(O)c3c(=O)cc(-c4ccccc4Cl)oc23)[C@H](O)C1` [ALVOCIDIB]: the fraction unbound at 6 h, 2 µM was found to be 0.147 in [1]; 1 in data set [2]; 0.0442 in data set [3]; 0.0624 in [4]; 0.021 in data set [5]; 0.033 in [6]. In data set [7], this compound had a Cp of 14 ng/mL. The Ct in [8] was 5.6 ng/mL; in [9], 2.9 ng/mL; in [10], 56 ng/mL; in data set [11], 32 ng/mL; in [12] it was 52 ng/mL. Also, the Kp uu was 1.7 in [13] (heart/plasma); 0.06 in [14] (brain/plasma); 2.7 in [15] (adipose/plasma); 0.33 in [16] (liver/plasma); 0.86 in data set [17] (skeletal muscle/plasma); 0.065 in data set [19]. The Papp in data set [18] came out at 22 ×10⁻⁶ cm/s.
Turning to `C[C@H](CN1CCOCC1)n1/c(=N\C(N)=O)[nH]c2cc(/C=C3\c4ccccc4COc4cc(F)ccc43)ccc21` [LY2623091], the fraction unbound at 6 h, 2 µM in [1] is 0.00041; in data set [2], 0.000192; in data set [3], 8.38e-05; in data set [4], 0.000104; in data set [5] it was 0.000706; in data set [6], 5.36e-05. This compound showed a Cp in data set [7] of 240 ng/mL. Further, the Ct was determined as 410 ng/mL in [8]; 31 ng/mL in [9]; 620 ng/mL in data set [10]; 730 ng/mL in data set [11]; 240 ng/mL in [12]. For the same compound, the Kp uu in [13] (heart/plasma) was determined as 0.68; in [14] (brain/plasma) it was 0.028; in [15] (adipose/plasma), 0.87; in data set [16] (liver/plasma), 5.6; in data set [17] (skeletal muscle/plasma), 0.14. In data set [18], the Papp turned out to be 0.1 ×10⁻⁶ cm/s.
For `CCC[C@H](Oc1cc(C)c(-n2cc(C(F)(F)F)cn2)c(C)c1)c1ccc(C(=O)NCCC(=O)O)cc1` [PF-06291874], the fraction unbound at 6 h, 2 µM in data set [1] came out at 0.00392; in data set [2], 0.0593; in [3] it was 0.00714; in data set [4] it was 0.00722; in data set [5], 0.00845; in [6], 0.00926. For the same compound, the Cp in data set [7] stood at 410 ng/mL. For the same compound, the Ct in data set [8] was determined as 18 ng/mL; in data set [9], 5.8 ng/mL; in data set [10] it was 200 ng/mL; in data set [11] it was 2400 ng/mL; in data set [12] it was 58 ng/mL. In addition, the Kp uu was 0.91 in data set [13] (heart/plasma); 0.026 in [14] (brain/plasma); 0.69 in [15] (adipose/plasma); 13 in data set [16] (liver/plasma); 0.33 in data set [17] (skeletal muscle/plasma). Moreover, the Papp in data set [18] turned out to be 8.5 ×10⁻⁶ cm/s.
For `COc1cc2nc(N3CCN(C(=O)c4ccco4)CC3)nc(N)c2cc1OC` [PRAZOSIN], the Cp in data set [7] stood at 40 ng/mL. Moreover, the Ct in data set [8] was determined as 33 ng/mL; in data set [9], 11 ng/mL; in data set [10], 180 ng/mL; in data set [11], 640 ng/mL; in data set [12], 100 ng/mL. In addition, the Kp uu came to 2.4 in [13] (other tissue); 0.11 in [14] (brain); 1.2 in data set [15] (other tissue); 2.8 in data set [16] (other tissue); 0.68 in data set [17] (other tissue); 0.059 in data set [19]. In data set [18], the Papp was determined as 26 ×10⁻⁶ cm/s.
`CC(C)c1nc(CN(C)C(=O)N[C@H](C(=O)N[C@@H](Cc2ccccc2)C[C@H](O)[C@H](Cc2ccccc2)NC(=O)OCc2cncs2)C(C)C)cs1` [RITONAVIR] came in with a Cp in [7] (Wistar Han) of 27 ng/mL. For the same compound, the Ct in data set [8] (Wistar Han) amounted to 31 ng/mL; in [9] (Wistar Han) it was 0.38 ng/mL; in data set [10] (Wistar Han), 170 ng/mL; in [11] (Wistar Han), 370 ng/mL; in data set [12] (Wistar Han), 42 ng/mL. Further, the Kp uu amounted to 9.6 in data set [13] (other tissue); 0.0018 in [14] (brain); 9.6 in [15] (other tissue); 1.2 in data set [16] (other tissue); 0.56 in data set [17] (other tissue); 0.019 in data set [19]. Also, the apparent permeability coefficient (Papp) in data set [18] was found to be 9.9 ×10⁻⁶ cm/s.
Turning to `CCCn1cnc(C[C@H](CCCN)C(=O)O)c1` [UK-396,082], the fraction unbound at 6 h, 2 µM in [1] was 0.686; in data set [2], 0.541; in data set [3] it was 0.239; in data set [4] it was 0.237; in data set [5], 0.237; in data set [6] it was 0.676. In data set [7], this compound returned a Cp of 160 ng/mL. For the same compound, the Ct is 30 ng/mL in data set [8]; 87 ng/mL in [9]; 190 ng/mL in data set [10]; 290 ng/mL in data set [11]; 160 ng/mL in data set [12]. Besides, the Kp uu in [13] (heart/plasma) worked out at 0.39; in [14] (brain/plasma), 0.19; in [15] (adipose/plasma), 0.14; in data set [16] (liver/plasma), 0.63; in data set [17] (skeletal muscle/plasma), 0.99. Besides, the apparent permeability coefficient (Papp) in data set [18] turned out to be 0.27 ×10⁻⁶ cm/s.
